Legend:
[1] = target: T1, TLR8 (Homo sapiens, UniProt Q9NR97); assay: TLR8 human PBMC cell-based assay (antagonist, Compound A stimulated cytokine release); settings: human PBMCs; TLR8 agonist Compound A 800 nM, 6 hours; cytokines (TNFa and IL 12p40) in supernatant; read-out: TLR-8 EC50
T1 construct: Human peripheral blood mononuclear cells (PBMCs) consist of lymphocytes, monocytes and dendritic cells that express TLR7, TLR8 and TLR9; endogenous in cells; host or cells: cryopreserved human PBMCs from healthy donors
T1 sequence (Q9NR97 27-1041): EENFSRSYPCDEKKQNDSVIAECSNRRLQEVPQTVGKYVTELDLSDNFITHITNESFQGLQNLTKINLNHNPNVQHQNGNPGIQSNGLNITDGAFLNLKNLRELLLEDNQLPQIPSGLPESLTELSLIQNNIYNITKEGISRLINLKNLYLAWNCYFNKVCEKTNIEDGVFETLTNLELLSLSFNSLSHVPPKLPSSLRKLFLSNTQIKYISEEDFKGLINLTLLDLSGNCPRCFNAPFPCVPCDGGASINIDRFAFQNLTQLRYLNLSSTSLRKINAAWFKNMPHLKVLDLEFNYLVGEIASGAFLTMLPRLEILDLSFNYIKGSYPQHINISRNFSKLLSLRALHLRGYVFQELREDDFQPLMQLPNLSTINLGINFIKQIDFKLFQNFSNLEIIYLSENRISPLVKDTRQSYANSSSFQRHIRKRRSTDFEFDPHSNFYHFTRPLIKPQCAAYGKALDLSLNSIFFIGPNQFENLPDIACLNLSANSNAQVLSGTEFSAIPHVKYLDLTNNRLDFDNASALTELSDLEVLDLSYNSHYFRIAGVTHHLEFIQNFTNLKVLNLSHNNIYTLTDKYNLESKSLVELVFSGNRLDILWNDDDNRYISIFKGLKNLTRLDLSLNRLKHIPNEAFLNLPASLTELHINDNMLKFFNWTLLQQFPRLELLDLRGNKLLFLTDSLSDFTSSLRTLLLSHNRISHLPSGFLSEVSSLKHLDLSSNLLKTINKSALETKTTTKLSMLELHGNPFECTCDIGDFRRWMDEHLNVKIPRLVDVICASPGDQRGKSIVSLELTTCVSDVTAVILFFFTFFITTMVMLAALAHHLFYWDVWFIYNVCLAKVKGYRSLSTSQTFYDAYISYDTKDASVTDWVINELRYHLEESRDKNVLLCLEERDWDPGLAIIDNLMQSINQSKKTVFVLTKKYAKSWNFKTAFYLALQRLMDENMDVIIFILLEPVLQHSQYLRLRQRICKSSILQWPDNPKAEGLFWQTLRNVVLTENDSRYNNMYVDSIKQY
From the text: (§1) Human peripheral blood mononuclear cells (PBMCs) consist of lymphocytes, monocytes and dendritic cells that express TLR7, TLR8 and TLR9. These cells respond to TLR7, TLR8 and TLR9 ligand stimulation and produce cytokines and chemokines in vitro and in vivo. Human PBMCs are therefore suitable to be used in a cell-based assay to assess the in vitro potency of a TLR 7, 8, and/or 9 antagonist. The result is expected to be more translatable to the pharmacodynamics response in vivo than cell line-based assays.
Cryopreserved human PBMCs from healthy donors were thawed and resuspended in RPMI-1640 media with L-glutamine (Corning) supplemented with 10% Fetal Bovine Serum (Hyclone) and 1X Penicillin-Streptomycin (Corning). After counting, the cell density was adjusted to 2 million cells/ml and incubated for 1 hour at 37° C., 5% CO2 for recovery. Following the recovery, the cells were plated by adding 50 μl per well (100,000 cells) to 384-well cell culture plates (Greiner) containing 250 nl of test antagonists in 100% DMSO per well, in a 10 points dose response in quadruplicates. PBMCs were incubated in the presence of antagonists for one hour at 37° C., 5% CO2 before being stimulated with TLR8 agonist. Compound A (Gilead Sciences, U.S. Pat. No. 10,285,990) was used as the TLR8 agonist at a final concentration of 800 nM. PBMCs were incubated in the presence of antagonist and the TLR8 agonist for an additional 6 hours at 37° C., 5% CO2. At the end of the incubation, the cell culture plates were centrifuged at 500 g for 5 min, and the cell culture supernatant was collected. The level of cytokines (TNFa and IL 12p40) in the supernatant was measured by electrochemiluminescence immunoassays (Mesoscale Discovery) following manufacturer's recommended protocols. The level of cytokine measured was plotted against the antagonist concentration and fitted to a sigmoidal function to determine the EC50, which are shown below in Table 11.

[2] = target: T2, TLR7 (Homo sapiens, UniProt Q9NYK1); assay: TLR7 human PBMC cell-based assay (antagonist, GS-986 stimulated cytokine release); settings: human PBMCs; TLR7 agonist GS-986 400 nM, 6 hours; cytokines (IL-6 and IFNα) in supernatant; read-out: TLR-7 EC50
T2 construct: Human peripheral blood mononuclear cells (PBMCs) consist of lymphocytes, monocytes and dendritic cells that express TLR7, TLR8 and TLR9; endogenous in cells; host or cells: cryopreserved human PBMCs from healthy donors
T2 sequence (Q9NYK1 27-1049): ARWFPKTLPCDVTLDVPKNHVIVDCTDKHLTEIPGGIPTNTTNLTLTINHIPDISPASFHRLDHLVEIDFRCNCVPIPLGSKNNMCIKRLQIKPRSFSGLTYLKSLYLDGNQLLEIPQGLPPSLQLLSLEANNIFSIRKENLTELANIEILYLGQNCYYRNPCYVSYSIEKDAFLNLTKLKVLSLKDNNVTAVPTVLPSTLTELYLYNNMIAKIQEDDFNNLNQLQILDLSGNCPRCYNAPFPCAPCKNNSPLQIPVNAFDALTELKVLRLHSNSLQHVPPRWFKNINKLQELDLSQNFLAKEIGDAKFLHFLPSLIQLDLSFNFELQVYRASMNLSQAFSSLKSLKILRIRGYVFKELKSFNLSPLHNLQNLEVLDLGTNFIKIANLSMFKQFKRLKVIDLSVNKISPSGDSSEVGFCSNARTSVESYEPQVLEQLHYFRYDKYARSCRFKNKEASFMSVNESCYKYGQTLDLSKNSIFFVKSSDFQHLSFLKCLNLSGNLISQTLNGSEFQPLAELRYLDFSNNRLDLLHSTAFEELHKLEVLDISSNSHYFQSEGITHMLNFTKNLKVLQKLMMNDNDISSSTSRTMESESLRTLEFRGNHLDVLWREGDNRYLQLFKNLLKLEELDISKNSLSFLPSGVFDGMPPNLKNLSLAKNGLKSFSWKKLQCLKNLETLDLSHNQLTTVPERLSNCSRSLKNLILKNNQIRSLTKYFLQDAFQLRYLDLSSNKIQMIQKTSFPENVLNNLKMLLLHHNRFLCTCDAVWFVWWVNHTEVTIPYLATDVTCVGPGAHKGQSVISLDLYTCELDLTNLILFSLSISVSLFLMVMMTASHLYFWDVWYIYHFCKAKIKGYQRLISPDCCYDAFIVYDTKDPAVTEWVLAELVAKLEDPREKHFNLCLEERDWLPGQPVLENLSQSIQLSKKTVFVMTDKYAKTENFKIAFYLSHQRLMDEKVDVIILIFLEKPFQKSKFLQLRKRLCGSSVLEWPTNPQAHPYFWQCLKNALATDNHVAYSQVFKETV
From the text: as §1
Cryopreserved human PBMCs from healthy donors were thawed and resuspended in RPMI-1640 media with L-glutamine (Corning) supplemented with 10% Fetal Bovine Serum (Hyclone) and 1× Penicillin-Streptomycin (Corning). After counting, the cell density was adjusted to 2 million cells/ml and incubated for 1 hour at 37° C., 5% CO2 for recovery. Following the recovery, the cells were plated by adding 50 μl per well (100,000 cells) to 384-well cell culture plates (Greiner) containing 250 nl of test antagonists in 100% DMSO per well, in a 10 points dose response in quadruplicates. PBMCs were incubated in the presence of test antagonists for one hour at 37° C., 5% CO2 before being stimulated with a TLR7 or TLR9agonist. GS-986 (Gilead Sciences) was used as the TLR7 agonist at a final concentration of 400 nM. ODN-2216 (InvivoGen) was used as the TLR9 agonist at a final concentration of 3 μM. PBMCs were incubated in the presence of the test antagonist and the TLR7 (or TLR9) agonist for an additional 6 hours at 37° C., 5% CO2. At the end of the incubation, the cell culture plates were centrifuged at 500 g for 5 min, and the cell culture supernatant was collected. The level of cytokines (IL-6 and IFNα) in the supernatant was measured by electrochemiluminescence immunoassays (Mesoscale Discovery) following manufacturer's recommended protocols. The level of cytokine measured was plotted against the test antagonist concentration and fitted to a sigmoidal function to determine the EC50, which are shown below in Table 11.

SMILES	EC50 [1] [nM]	EC50 [2] [nM]
Cc1cc(-c2[nH]c3cc(C(=O)N4CC5CCC(C4)N5)sc3c2C(C)C)cc(C)n1 [Example 16]	15.1	43.5
Cc1cc(-c2[nH]c3cc(C(=O)N4C5CCC4CNC5)sc3c2C(C)C)cc(C)n1 [Example 17]	32	49.9
Cc1cc(-c2[nH]c3cc(C(=O)N4CC5CC(C4)N5)sc3c2C(C)C)cc(C)n1 [Example 18]	67.2	200
Cc1cc(-c2[nH]c3cc(C(=O)N4C5CNCC4C5)sc3c2C(C)C)cc(C)n1 [Example 19]	53.7	77.7
Cc1cc(-c2[nH]c3cc(C(=O)N4C[C@@H]5C[C@H]4CN5)sc3c2C(C)C)cc(C)n1 [Example 20]	26.4	223
Cc1cc(-c2[nH]c3cc(C(=O)N4C[C@H]5C[C@@H]4CN5)sc3c2C(C)C)cc(C)n1 [Example 21]	66.2	70.6
Cc1cc(-c2[nH]c3cc(C(=O)N(C)[C@@H]4CCNC4)sc3c2C(C)C)cc(C)n1 [Example 22]	94	50.1
Cc1cc(-c2[nH]c3cc(C(=O)N(C)[C@H]4CCNC4)sc3c2C(C)C)cc(C)n1 [Example 23]	68	19.9
Cc1cc(-c2[nH]c3cc(C(=O)N4CC5(CNC5)C4)sc3c2C(C)C)cc(C)n1 [Example 24]	408	504
CO[C@@H]1CCN(C(=O)c2cc3[nH]c(-c4cc(C)nc(C)c4)c(C(C)C)c3s2)C[C@@H]1N [Example 25]	136	64.4
Cc1cc(-c2[nH]c3cc(C(=O)N4CC[C@@H](F)[C@@H](N)C4)sc3c2C(C)C)cc(C)n1 [Example 27]	123	72
Cc1cc(-c2[nH]c3cc(C(=O)N4CCCC5NCCC54)sc3c2C(C)C)cc(C)n1 (centres unmarked) [Example 28]	81	26
Cc1cc(-c2[nH]c3cc(C(=O)N(C)[C@H]4CCCNC4)sc3c2C(C)C)cc(C)n1 [Example 29]	92	60
Cc1cc(-c2[nH]c3cc(C(=O)N4CCC5CCNC5C4)sc3c2C(C)C)cc(C)n1 (centres unmarked) [Example 30]	30	35.9
Cc1cc(-c2[nH]c3cc(C(=O)N4CCC5CC5(N)C4)sc3c2C(C)C)cc(C)n1 (centres unmarked) [Example 31]	68	40.6
Cc1c(-c2[nH]c3cc(C(=O)N4CCNCC4)sc3c2C(C)C)cn2ncnc2c1C [Example 32]	1.2	2.1
Cc1cc(-c2[nH]c3cc(C(=O)N4CCNCC4)sc3c2C(C)C)cn(C)c1=O [Example 34]	3	9.7
Cc1cc(-c2[nH]c3cc(C(=O)N(C)[C@H]4CCNC4)sc3c2C(C)C)cn(C)c1=O [Example 36]	37	29.8
Cc1cc(-c2[nH]c3cc(C(=O)N4CCNCC4)sc3c2C(C)C)cn2ncnc12 [Example 38, [6-isopropyl-5-(8-methyl-[1,2,4]triazolo[1,5-a]pyridin-6-yl)-4H-thieno[3,2-b]pyrrol-2-yl]-piperazin-1-yl-methanone]	3.4	3.5
Cc1cc(-c2[nH]c3cc(C(=O)N(C)[C@H]4CCNC4)sc3c2C(C)C)cn2ncnc12 [Example 39]	11.2	0.6
Cc1cc(-c2[nH]c3cc(C(=O)N4CCNC(=O)C4)sc3c2C(C)C)cn2ncnc12 [Example 40, 4-[6-isopropyl-5-(8-methyl-[1,2,4]triazolo[1,5-a]pyridin-6-yl)-4H-thieno[3,2-b]pyrrole-2-carbonyl]piperazin-2-one]	115	17.8
Cc1cc(-c2[nH]c3cc(C(=O)N4CCN(C)CC4)sc3c2C(C)C)cn2ncnc12 [Example 43]	2.6	6.4
Cc1cc(-c2[nH]c3cc(C(=O)N4CCC(O)CC4)sc3c2C(C)C)cn2ncnc12 [Example 44]	41.2	46.1
Cc1cc(-c2[nH]c3cc(C(=O)N4CCN(CCO)CC4)sc3c2C(C)C)cc(C)n1 [Example 45]	31.7	355
Cc1cc(-c2[nH]c3cc(-c4nc(C5CCNCC5)no4)sc3c2C(C)C)cn2ncnc12 [Example 46, 5-(6-isopropyl-5-(8-methyl-[1,2,4]triazolo[1,5-a]pyridin-6-yl)-4H-thieno[3,2-b]pyrrol-2-yl)-3-(piperidin-4-yl)-1,2,4-oxadiazole]	3.8	0.1
